According to article PMC4710668, “Bioactivation of food genotoxicants 5-hydroxymethylfurfural and furfuryl alcohol by sulfotransferases from human, mouse and rat: a comparative study” (Archives of Toxicology, 2014):
“And” between values parts separate entries of the source, which are not always exact repeats. Equal entries are not always repeated. Marks after values point to notes of the source that are not given here.

What was measured:
rSult2a4 = experiment: FFA sulfoconjugation assay (N6-MF-A formation with adenosine as scavenger); assay type: biochemical, rat
Protocol: Cytosolic fractions containing individual SULT forms were prepared from transgenic S. typhimurium TA1538. Table S1 in the Supplementary Material provides a summary of the thirty SULTs used in the current study together with references describing the cloning of the respective S. typhimurium TA1538 strains. The expressed SULT forms are denoted with the prefixes h, m and r for human, mouse and rat enzymes, respectively. Bacteria were grown in Luria Broth medium containing ampicillin (100 µg/ml) by stirring for 8 h at 200 revolutions/min at 37 °C. The bacterial suspensions were centrifuged at 5,000 g for 10 min. The sediments were washed twice with 25 ml of 10 mM potassium phosphate buffer (pH 7.4)/50 mM potassium chloride (KCP buffer) and centrifuged again. The pellets were taken up in 800 µl KCP buffer and sonicated thrice for 15 s with 30 s pauses in between. The soluble fraction was attained by centrifuging for 1 h at 100,000 g. The supernatants (in the following termed cytosolic preparations) were frozen at −80 °C. The protein concentrations were determined according to a bicinchoninic acid (BCA) assay protocol. […]
The ribonucleoside adduct N ^6-((furan-2-yl)methyl)-adenosine (N ^6-MF-A) was analyzed by isotope-dilution UPLC-MS/MS with the same system described above using a HSS T3 column (1.8 µm, 2.1 × 100 mm, Waters). […] The fragmentations of N ^6-MF-A into the aglycone cation [N ^6-((furan-2-yl)methyl)-adenine-H]^+ (m/z = 348.1 → 216.1), the cleavage of the 2-methylfuranyl cation (m/z = 348.1 → 81.0) and the release of [N ^6-methyl-adenine-H]^+ (m/z = 348.1 → 148.0) were monitored together with the corresponding fragmentations of the isotope-labeled internal standard [^15N5]N ^6-MF-A for the formation of the aglycone (m/z = 353.1 → 221.1), the 2-methylfuran cation (m/z = 353.1 → 81.0) and ^15N5-labeled N ^6-methyl-adenine (m/z = 353.1 → 153.0). The N ^6-MF-A content of the incubation mixture was calculated from the ratio of peak areas resulting from the total ion current of all three MRM signals of the analyte. […]

[1] = system: S. typhimurium TA100 strains expressing different SULT forms; details: ref Glatt et al. [2012]; cited from earlier work
rSult1c2 = molecular target: T1, rSult1c2 (Rattus norvegicus, UniProt Q9WUW8); experiment: FFA sulfoconjugation assay (N6-MF-A formation with adenosine as scavenger); assay type: biochemical
T1 construct: made in house; host or cells: Salmonella typhimurium TA1538 (cytosolic fraction, enzyme not purified)
Protocol: (§1) Cytosolic fractions containing individual SULT forms were prepared from transgenic S. typhimurium TA1538. Table S1 in the Supplementary Material provides a summary of the thirty SULTs used in the current study together with references describing the cloning of the respective S. typhimurium TA1538 strains. The expressed SULT forms are denoted with the prefixes h, m and r for human, mouse and rat enzymes, respectively. Bacteria were grown in Luria Broth medium containing ampicillin (100 µg/ml) by stirring for 8 h at 200 revolutions/min at 37 °C. The bacterial suspensions were centrifuged at 5,000 g for 10 min. The sediments were washed twice with 25 ml of 10 mM potassium phosphate buffer (pH 7.4)/50 mM potassium chloride (KCP buffer) and centrifuged again. The pellets were taken up in 800 µl KCP buffer and sonicated thrice for 15 s with 30 s pauses in between. The soluble fraction was attained by centrifuging for 1 h at 100,000 g. The supernatants (in the following termed cytosolic preparations) were frozen at −80 °C. The protein concentrations were determined according to a bicinchoninic acid (BCA) assay protocol. The SULT concentrations in the cytosolic preparations were estimated after electrophoretic separation and immunodetection using inclusion bodies of different SULT forms as standards (Teubner et al. [2007]). The preparation of SULT inclusion bodies and the immunodetection of SULTs is described in the Supplementary Material, which also contains a representative immunoblot of different amounts of rSult1a1standard and a cytosolic preparation of S. typhimurium expressing rSult1a1 (Fig. S1).
(§2) The reaction mixtures were prepared as described for HMF. In addition, they contained 10 mM adenosine as a nucleophilic scavenger. Following incubation for 20 min at 37 °C, sulfoconjugation reactions were stopped by adding 100 µl cold methanol containing 175 fmol of [^15N5]N ^6-MF-A as the internal standard, mixed and centrifuged at 15,000 g for 10 min. The clear supernatants were subjected to UPLC-MS/MS analyses. Incubations were performed as quadruplicates. At higher concentrations, FFA reacts spontaneously with adenosine at low, but detectable, levels. To correct for the SULT-independent adduct formation, mixtures with SULT-deficient cytosols were carried along simultaneously in duplicate. Controls were subtracted from the experimental samples.
(§3) The ribonucleoside adduct N ^6-((furan-2-yl)methyl)-adenosine (N ^6-MF-A) was analyzed by isotope-dilution UPLC-MS/MS with the same system described above using a HSS T3 column (1.8 µm, 2.1 × 100 mm, Waters). Samples of 8 µl were eluted with 10 mM ammonium bicarbonate buffer, pH 8.0 (A) and methanol (B) using an 6-min gradient from 98 % solvent A to 15 % solvent A at 0.35 ml/min flow rate (Yin et al. [2013]). The electrospray interface of the mass spectrometer operated in the positive ion mode. The fragmentations of N ^6-MF-A into the aglycone cation [N ^6-((furan-2-yl)methyl)-adenine-H]^+ (m/z = 348.1 → 216.1), the cleavage of the 2-methylfuranyl cation (m/z = 348.1 → 81.0) and the release of [N ^6-methyl-adenine-H]^+ (m/z = 348.1 → 148.0) were monitored together with the corresponding fragmentations of the isotope-labeled internal standard [^15N5]N ^6-MF-A for the formation of the aglycone (m/z = 353.1 → 221.1), the 2-methylfuran cation (m/z = 353.1 → 81.0) and ^15N5-labeled N ^6-methyl-adenine (m/z = 353.1 → 153.0). The N ^6-MF-A content of the incubation mixture was calculated from the ratio of peak areas resulting from the total ion current of all three MRM signals of the analyte. For the fragmentation of N ^6-MF-A ([^15N5]N ^6-MF-A), collision energies were 20, 25 and 35 eV for the transitions m/z = 348.1 → 216.1 (m/z = 353.1 → 221.1), m/z = 348.1 → 148.0 (m/z = 353.1 → 153.0) and m/z = 348.1 → 81.0 (m/z = 353.1 → 81.0), respectively. […]

hSULT1C3 = molecular target: T2, hSULT1C3 (Homo sapiens, UniProt Q6IMI6); experiment: as above; assay type: biochemical
T2 construct: made in house; host or cells: Salmonella typhimurium TA1538 (cytosolic fraction, not purified)
Protocol: as §1, §2, §3

mSult2a1 = molecular target: T3, mSult2a1 (Mus musculus, UniProt P52843); experiment: as above; assay type: biochemical
T3 construct: made in house; host or cells: Salmonella typhimurium TA1538 (cytosolic fraction, enzyme not purified)
T3 sequence (P52843 1-285): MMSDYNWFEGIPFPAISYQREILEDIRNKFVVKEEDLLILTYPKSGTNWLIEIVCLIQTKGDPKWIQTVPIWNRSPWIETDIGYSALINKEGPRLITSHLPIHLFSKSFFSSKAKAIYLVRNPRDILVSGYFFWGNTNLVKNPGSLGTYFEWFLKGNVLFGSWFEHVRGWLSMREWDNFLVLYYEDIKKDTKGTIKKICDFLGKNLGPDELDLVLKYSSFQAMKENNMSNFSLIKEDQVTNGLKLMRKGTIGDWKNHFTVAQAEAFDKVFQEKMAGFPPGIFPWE
Protocol: as §1, §2, §3

rSult1b1 = molecular target: T4, rSult1b1 (Rattus norvegicus, UniProt P52847); experiment: as above; assay type: biochemical
T4 construct: made in house; host or cells: Salmonella typhimurium TA1538 (cytosolic fraction, enzyme not purified)
Protocol: as §1, §2, §3

mSult1d1 = molecular target: T5, mSult1d1 (Mus musculus, UniProt Q3UZZ6); experiment: as above; assay type: biochemical
T5 construct: made in house; host or cells: Salmonella typhimurium TA1538 (cytosolic fraction, enzyme not purified)
Protocol: as §1, §2, §3

hSULT1C2 = molecular target: T6, hSULT1C2 (Homo sapiens, UniProt O75897); experiment: as above; assay type: biochemical
T6 construct: made in house; host or cells: Salmonella typhimurium TA1538 (cytosolic fraction, not purified)
Protocol: as §1, §2, §3

hSULT1A1 = molecular target: T7, hSULT1A1 (Homo sapiens, UniProt P50225); experiment: as above; assay type: biochemical
T7 construct: made in house; host or cells: Salmonella typhimurium TA1538 (cytosolic fraction, not purified)
Protocol: as §1, §2, §3

hSULT1C1 = molecular target: T8, hSULT1C1 (Homo sapiens, UniProt O00338); experiment: as above; assay type: biochemical
T8 construct: made in house; host or cells: Salmonella typhimurium TA1538 (cytosolic fraction, not purified)
Protocol: as §1, §2, §3

[2] = 1 mM FFA, corrected by actual SULT concentration in the cytosolic preparation

T6 sequence (O75897 whole entry): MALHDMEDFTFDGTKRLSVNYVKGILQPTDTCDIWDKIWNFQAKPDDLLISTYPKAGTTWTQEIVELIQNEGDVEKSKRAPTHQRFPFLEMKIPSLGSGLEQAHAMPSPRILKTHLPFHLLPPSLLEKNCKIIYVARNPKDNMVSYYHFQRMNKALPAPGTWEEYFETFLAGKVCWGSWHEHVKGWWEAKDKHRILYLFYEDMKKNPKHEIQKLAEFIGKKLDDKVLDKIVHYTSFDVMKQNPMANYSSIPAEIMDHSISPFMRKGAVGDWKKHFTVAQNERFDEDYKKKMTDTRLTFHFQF
T2 sequence (Q6IMI6 whole entry): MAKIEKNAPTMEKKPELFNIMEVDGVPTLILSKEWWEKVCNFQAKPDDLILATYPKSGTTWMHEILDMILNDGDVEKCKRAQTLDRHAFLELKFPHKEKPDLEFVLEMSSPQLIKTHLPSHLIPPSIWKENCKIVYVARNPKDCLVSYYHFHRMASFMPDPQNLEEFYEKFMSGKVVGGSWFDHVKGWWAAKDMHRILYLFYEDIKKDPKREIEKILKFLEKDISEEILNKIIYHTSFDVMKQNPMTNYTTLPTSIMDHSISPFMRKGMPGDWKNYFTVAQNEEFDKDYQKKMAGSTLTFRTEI
T1 sequence (Q9WUW8 whole entry): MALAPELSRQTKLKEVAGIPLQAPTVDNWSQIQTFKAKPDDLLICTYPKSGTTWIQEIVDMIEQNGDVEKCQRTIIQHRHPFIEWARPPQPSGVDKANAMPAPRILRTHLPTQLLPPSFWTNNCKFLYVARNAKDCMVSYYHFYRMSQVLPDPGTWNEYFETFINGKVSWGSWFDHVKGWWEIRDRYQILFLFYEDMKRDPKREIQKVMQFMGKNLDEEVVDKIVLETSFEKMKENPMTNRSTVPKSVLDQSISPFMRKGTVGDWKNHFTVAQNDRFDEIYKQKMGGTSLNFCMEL
T7 sequence (P50225 whole entry): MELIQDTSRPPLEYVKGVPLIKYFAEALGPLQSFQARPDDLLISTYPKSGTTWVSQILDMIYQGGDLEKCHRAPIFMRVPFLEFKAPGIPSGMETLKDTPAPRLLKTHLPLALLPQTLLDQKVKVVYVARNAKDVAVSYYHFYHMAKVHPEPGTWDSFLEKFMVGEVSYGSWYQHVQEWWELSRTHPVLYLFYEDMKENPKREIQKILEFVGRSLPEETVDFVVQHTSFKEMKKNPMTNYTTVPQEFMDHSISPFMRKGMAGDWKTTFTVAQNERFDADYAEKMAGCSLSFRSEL
T5 sequence (Q3UZZ6 whole entry): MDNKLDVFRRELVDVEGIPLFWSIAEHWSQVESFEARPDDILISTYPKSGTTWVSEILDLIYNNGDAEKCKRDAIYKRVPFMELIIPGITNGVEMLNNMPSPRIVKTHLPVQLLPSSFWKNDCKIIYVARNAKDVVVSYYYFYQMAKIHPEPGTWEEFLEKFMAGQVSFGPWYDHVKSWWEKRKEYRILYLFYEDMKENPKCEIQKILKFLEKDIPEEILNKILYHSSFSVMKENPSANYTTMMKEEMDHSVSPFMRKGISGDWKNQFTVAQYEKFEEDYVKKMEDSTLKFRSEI
T8 sequence (O00338 whole entry): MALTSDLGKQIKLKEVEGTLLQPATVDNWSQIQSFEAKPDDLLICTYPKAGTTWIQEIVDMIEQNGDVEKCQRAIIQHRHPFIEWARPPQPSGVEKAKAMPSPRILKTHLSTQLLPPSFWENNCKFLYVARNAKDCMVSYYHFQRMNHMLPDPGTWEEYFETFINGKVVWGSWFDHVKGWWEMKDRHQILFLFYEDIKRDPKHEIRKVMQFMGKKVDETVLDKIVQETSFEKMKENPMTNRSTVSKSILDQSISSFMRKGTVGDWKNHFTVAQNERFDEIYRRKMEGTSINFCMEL
T4 sequence (P52847 whole entry): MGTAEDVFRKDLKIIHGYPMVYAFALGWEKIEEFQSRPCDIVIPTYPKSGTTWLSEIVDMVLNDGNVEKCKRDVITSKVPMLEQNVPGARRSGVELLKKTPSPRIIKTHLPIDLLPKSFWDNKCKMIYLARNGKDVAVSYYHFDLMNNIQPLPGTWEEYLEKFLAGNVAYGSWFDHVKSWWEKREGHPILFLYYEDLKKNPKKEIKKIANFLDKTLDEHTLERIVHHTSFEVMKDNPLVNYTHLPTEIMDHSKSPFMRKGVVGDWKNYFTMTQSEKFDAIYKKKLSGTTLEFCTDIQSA

OCc1ccco1 [FFA, furfuryl alcohol]
Rate of N6-MF-A formation (rSult2a4; 0.1 mM FFA): <18 fmol N ^6-MF-A/mg/min
Rate of N6-MF-A formation (rSult2a4; 1 mM FFA): <20 fmol N ^6-MF-A/mg/min
Rate of N6-MF-A formation (rSult2a4; 10 mM FFA): <44 fmol N ^6-MF-A/mg/min
mutagenicity in SULT-expressing strains [1]: highest mutagenicity of FFA was observed in bacteria expressing hSULT1A1, 1C2 and mSult1a1
Rate of N6-MF-A formation (rSult1c2; 0.1 mM FFA): <18 fmol N ^6-MF-A/mg/min
Rate of N6-MF-A formation (rSult1c2; 1 mM FFA): <20 fmol N ^6-MF-A/mg/min
Rate of N6-MF-A formation (rSult1c2; 10 mM FFA): <44 fmol N ^6-MF-A/mg/min
Rate of N6-MF-A formation (hSULT1C3; 0.1 mM FFA): <18 fmol N ^6-MF-A/mg/min
Rate of N6-MF-A formation (hSULT1C3; 1 mM FFA): 61.8 ± 0.3 fmol N ^6-MF-A/mg/min
Rate of N6-MF-A formation (corr.) (hSULT1C3; 1 mM FFA, corrected by SULT concentration reported in Meinl et al. [2006]): 3,090 ± 10^b fmol N ^6-MF-A/mg/min
Rate of N6-MF-A formation (hSULT1C3; 10 mM FFA): 248 ± 3 fmol N ^6-MF-A/mg/min
Rate of N6-MF-A formation (mSult2a1; 0.1 mM FFA): <18 fmol N ^6-MF-A/mg/min
Rate of N6-MF-A formation (mSult2a1; 1 mM FFA): <20 fmol N ^6-MF-A/mg/min
Rate of N6-MF-A formation (mSult2a1; 10 mM FFA): 154 ± 2 fmol N ^6-MF-A/mg/min
Rate of N6-MF-A formation (rSult1b1; 0.1 mM FFA): <18 fmol N ^6-MF-A/mg/min
Rate of N6-MF-A formation (rSult1b1; 1 mM FFA): 34.3 ± 1.0 fmol N ^6-MF-A/mg/min
Rate of N6-MF-A formation (rSult1b1; 10 mM FFA): 314 ± 4 fmol N ^6-MF-A/mg/min
Rate of N6-MF-A formation (mSult1d1; 0.1 mM FFA): 52.5 ± 1.7 fmol N ^6-MF-A/mg/min
Rate of N6-MF-A formation (mSult1d1; 1 mM FFA): 468 ± 6 fmol N ^6-MF-A/mg/min
Rate of N6-MF-A formation (corr.) (mSult1d1; [2]): 4,260 ± 60 fmol N ^6-MF-A/mg/min
Rate of N6-MF-A formation (mSult1d1; 10 mM FFA): 2,610 ± 30 fmol N ^6-MF-A/mg/min
Rate of N6-MF-A formation (hSULT1C2; 0.1 mM FFA): 51.3 ± 0.8 fmol N ^6-MF-A/mg/min
Rate of N6-MF-A formation (hSULT1C2; 1 mM FFA): 459 ± 2 fmol N ^6-MF-A/mg/min
Rate of N6-MF-A formation (corr.) (hSULT1C2; [2]): 45,900 fmol N ^6-MF-A/mg/min and 45,900 ± 200 fmol N ^6-MF-A/mg/min
Rate of N6-MF-A formation (hSULT1C2; 10 mM FFA): 2,230 ± 10 fmol N ^6-MF-A/mg/min
Rate of N6-MF-A formation (hSULT1A1; 0.1 mM FFA): 73.5 ± 1.1 fmol N ^6-MF-A/mg/min
Rate of N6-MF-A formation (hSULT1A1; 1 mM FFA): 575 ± 2 fmol N ^6-MF-A/mg/min
Rate of N6-MF-A formation (corr.) (hSULT1A1; [2]): 57,500 fmol N ^6-MF-A/mg/min and 57,500 ± 200 fmol N ^6-MF-A/mg/min
ratio of N6-MF-A formation rate, hSULT1A1 vs hSULT1A2, 1A3, 1B1, 1C3 and 2A1 (hSULT1A1; 1 mM FFA, corrected rates): 11- to 30 fold
Rate of N6-MF-A formation (hSULT1A1; 10 mM FFA): 931 ± 5 fmol N ^6-MF-A/mg/min
Rate of N6-MF-A formation (hSULT1C1; 0.1 mM FFA): <18 fmol N ^6-MF-A/mg/min
Rate of N6-MF-A formation (hSULT1C1; 1 mM FFA): <20 fmol N ^6-MF-A/mg/min
Rate of N6-MF-A formation (hSULT1C1; 10 mM FFA): <44 fmol N ^6-MF-A/mg/min

O=Cc1ccc(CO)o1 [HMF, 5-Hydroxymethylfurfural]
mutagenicity in SULT-expressing strains [1]: small, were detectable in those strains that expressed hSULT1A1, 1A3 and 1C2 as well as mSult1a1 and 1d1
